Laboratory results: patent publication US8809377B2, “Deubiquitinase inhibitors and methods for use of the same” (The Regents of the University of Michigan, priority 2010, dated 2014)

What was measured:
USP9X = assay: Western / HA-UbVS labeling of USP9X in intact cells or lysates; format: cell-based; conditions: for Western Targets: USP9X: H929, WDT2, Z138 cell lines; for Usp9x activity (HA-UbVs labeling): CML cells treated for 4 hours
DUB activity = assay: Western / HA-UbVS labeling of DUB activity in intact cells; format: cell-based; conditions: H929, WDT2, Z138 cell lines
Experimental: (§1) To assay for changes in activity of cellular deubiquitinase enzymes, leukemic cells were lysed in DUB buffer (50 mM Tris pH 7.4, 5 mM MgCl2, 150 mM NaCl) for 10 min at 4° C. The lysates were centrifuged at 20,000 RCF for 10 min and the supernatant was used for DUB labeling. Equal amounts of lysate were incubated with 500 ng of HA-UbVs for 1 hr at room temperature, followed by boiling in reducing sample buffer and resolving by SDS-PAGE. HA immunoblotting was used to detect DUB labeling.
as §1, with “Z138 and HEK293” for “leukemic”, “RFC” for “RCF”, “SDS-PAGE. After protein transfer to nitrocellulose membranes,” for “SDS-PAGE.”
(§2) Cancer Res, 2010. 70(22): p. […] Blood, 2011. 117(11): p. […] Biochem Pharmacol, 2011. 82(4): p. […] Blood, 2007. 109(8): p. 3470-8.

Murine norovirus (MNV) = assay: Murine norovirus plaque assay; format: cell-based; conditions: Norwalk virus, RAW264.7, MNV, murine macrophages (RAW264.7 or bone marrow derived), 5 μM, 30 min pre-treatment, 8-12 hr; read-out: Log inhibition by plaque assay
Experimental: Viral titers were determined by plaque assay.
Cells were treated with IFN-β as a positive anti-viral control.

USP9X-UCH = target: T1, USP9X-UCH (Homo sapiens, UniProt Q93008); format: biochemical; conditions: isolated Usp9x-UCH domain enzyme preparation
T1 sequence (Q93008 1557-1956 limits assumed): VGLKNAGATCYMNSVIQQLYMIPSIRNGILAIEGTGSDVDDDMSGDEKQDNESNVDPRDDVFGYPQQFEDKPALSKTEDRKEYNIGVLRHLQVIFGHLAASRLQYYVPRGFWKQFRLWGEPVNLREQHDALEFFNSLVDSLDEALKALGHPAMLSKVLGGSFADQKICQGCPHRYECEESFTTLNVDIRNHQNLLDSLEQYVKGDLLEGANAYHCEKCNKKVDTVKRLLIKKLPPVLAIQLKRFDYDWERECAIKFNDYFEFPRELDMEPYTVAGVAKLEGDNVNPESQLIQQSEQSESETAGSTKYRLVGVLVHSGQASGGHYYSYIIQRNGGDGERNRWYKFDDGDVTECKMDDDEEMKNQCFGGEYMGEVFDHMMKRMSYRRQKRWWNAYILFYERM
Experimental: Purified DUBs at optimal concentrations (USPS; 20 nM, UCH-L1; 20 nM, UCH-L3; 5 nM, USP9x; immunoprecipitated from 500 μg Z138 cell lysate) were incubated in DUB buffer containing WP1130, vehicle alone (DMSO) or 1 mM NEM (positive control for DUB inhibition) in a 100 μL reaction volume for 30 min. The reaction was initiated by the addition of 500 nM Ub-AMC and the release of AMC-fluorescence was recorded at ex/em 380/480 using a spectrofluorometer.
as §2

Z138 = assay: MTT cell growth, survival and apoptosis; conditions: Z138 cell line
cellular DUB activity = assay: DUB activity of lysates from treated cells (Ub-AMC, Ub chain disassembly); format: cell-based; parameters: suppression of cellular DUB activity (ubiquitin-AMC): dose or concentration left out as unconfirmed
Experimental: Cells were lysed in ice cold DUB buffer containing 50 mM Tris-HCl, pH 7.5, 0.5% NP-40, 5 mM MgCl2, 150 mM NaCl and 1 mM phenylmethylsulfonylfluoride. Briefly, 5 μg of clarified lysate from untreated or treated cells was incubated with 500 nM Ub-AMC in a 100 μL reaction volume at 37° C. and the release of AMC fluorescence was recorded at ex/em 380/480 using a spectrofluorometer. USP9x was immunoprecipitated from 500 μg of cell lysate and incubated in DUB buffer containing NEM, WP1130 or DMSO in a 100 μL reaction volume for 30 min. The reaction was initiated by the addition of 500 nM Ub-AMC and the release of AMC-fluorescence was recorded.
In vitro disassembly of purified polyubiquitin chains (K-48/K-63 linked) was performed as previously described. Five μg of lysate from untreated or WP1130 treated cells were prepared in DUB buffer and incubated with K48- or K-63 linked chains (1 μg) for 10 min at 37° C. The extent of chain disassembly was assessed by ubiquitin immunoblotting.
Inhibition of cellular deubiquitinases could lead to an increase in high molecular weight ubiquitinated proteins in the absence of proteasome inhibition. […] To directly assess the impact of WP1130 on DUB activity in treated cells, cell lysates from control and treated cells were incubated with ubiquitin-AMC and fluorescence generated as a consequence of substrate cleavage was measured as an indicator of DUB activity.
The effect of WP1130 treatment on in vitro deubiquitination/disassembly of purified K48-linked or K63-linked polyubiquitin chains was evaluated. Lysates from WP1130 treated (2 hr) or untreated cells were incubated with 1 μg of unanchored polyubiquitin chains for 5, 10 and 15 min at 37° C.

| AMC Assay on USP9X-UCH Activity relative to WP1130 (USP9X-UCH) | Structure (SMILES) | log reduction at 5 µM (Murine norovirus (MNV)) | MTT Activity relative to WP1130 (Z138) | further results |
| --- | --- | --- | --- | --- |
|  | CCCC(NC(=O)/C(C#N)=C/c1ncc[nH]1)c1ccc(OCOC)cc1 (stereo not drawn) [Compound 10, (E)-2-Cyano-3-(1H-imidazol-2-yl)-N-(1-(4-(methoxymethoxy)phenyl)butyl)acrylamide] |  |  | Western Targets: USP9X (USP9X): USP9X and DUB activity: no effect; Western Targets: DUB activity (DUB activity): USP9X and DUB activity: no effect |
|  | CCCC(NC(=O)/C=C/c1cccc(Br)n1)c1ccc(OCCOCCOCCNC(=O)CCCC[C@@H]2SC[C@@H]3NC(=O)N[C@@H]32)cc1 (stereo partly drawn) [Compound 51, N-(2-(2-(2-(4-(1-((E)-3-(6-Bromopyridin-2-yl)acrylamido)butyl)phenoxy)ethoxy)ethoxy)ethyl)-5-((3aS,4S,6aR)-2-oxohexahydro-1H-thieno[3,4-d]imidazol-4-yl)pentanamide] | 0 |  |  |
| Inconclusive | CCCC(NC(=O)/C(C#N)=C/c1ncc[nH]1)c1ccc(OCCN(C)C)cc1 (stereo not drawn) [Compound 38, (E)-2-Cyano-N-(1-(4-(2-(dimethylamino)ethoxy)phenyl)butyl)-3-(1H-imidazol-2-yl)acrylamide] | 0.5 | Less sensitive |  |
| Less sensitive | CCC[C@H](NC(=O)/C(C#N)=C/c1ncc[nH]1)c1ccccc1 [Compound 42, (S,E)-2-Cyano-3-(1H-imidazol-2-yl)-N-(1-phenylbutyl)acrylamide] | 0.5 | Less sensitive |  |
| No inhibition | CCCC(NC(=O)/C(C#N)=C/c1cccc(F)n1)c1ccc(OCCN2CCOCC2)cc1 (stereo not drawn) [Compound 37, (E)-2-Cyano-3-(6-fluoropyridin-2-yl)-N-(1-(4-(2-morpholinoethoxy)phenyl)butyl)acrylamide] | 1 | Less sensitive |  |
| Same | CCCC(NC(=O)/C(C#N)=C/c1cccc(Br)n1)c1ccc(OCCN(CC)CC)cc1 (stereo not drawn) [Compound 33, (E)-3-(6-Bromopyridin-2-yl)-2-cyano-N-(1-(4-(2-(diethylamino)ethoxy)phenyl)butyl)acrylamide] | 2 to 2.5 | Less sensitive |  |
| Inconclusive | CCCC(NC(=O)/C(C#N)=C/c1cccc(Br)n1)c1ccc(OCCN(C)C)cc1 (stereo not drawn) [Compound 35, (E)-3-(6-Bromopyridin-2-yl)-2-cyano-N-(1-(4-(2-(dimethylamino)ethoxy)phenyl)butyl)acrylamide] | 2 | Less sensitive |  |
|  | CCCC(NC(=O)/C(C#N)=C/c1ncc[nH]1)c1ccc(O)cc1 (stereo not drawn) [Compound 11, (E)-2-Cyano-N-(1-(4-hydroxyphenyl)butyl)-3-(1H-imidazol-2-yl)acrylamide] |  |  | Western Targets: USP9X (USP9X): USP9X and DUB activity: no effect; Western Targets: DUB activity (DUB activity): USP9X and DUB activity: no effect |
|  | Cc1cnc(Nc2ccc(N3CCN(C)CC3)cc2)nc1Nc1cccc(S(=O)(=O)NC(C)(C)C)c1 [TG101209, reference compound] |  |  | Usp9x activity (HA-UbVs labeling) (USP9X): none of the kinase inhibitors examined had significant Usp9x inhibitory activity |
|  | Cc1ccc(NC(=O)c2ccc(CN3CCN(C)CC3)cc2)cc1Nc1nccc(-c2cccnc2)n1 [imatinib, reference compound] |  |  | Usp9x activity (HA-UbVs labeling) (USP9X): none of the kinase inhibitors examined had significant Usp9x inhibitory activity |
|  | CCCC(NC(=O)/C(C#N)=C/c1cccc(Br)n1)c1ccc(OCCOCCOCCNC(=O)CCCC[C@@H]2SC[C@@H]3NC(=O)N[C@@H]32)cc1 (stereo partly drawn) [Compound 48, N-(2-(2-(2-(4-(1-((E)-3-(6-Bromopyridin-2-yl)-2-cyanoacrylamido)butyl)phenoxy)ethoxy)ethoxy)ethyl)-5-((3aS,4S,6aR)-2-oxohexahydro-1H-thieno[3,4-d]imidazol-4-yl)pentanamide] | 1.5 |  |  |
| Inconclusive | CCC[C@H](NC(=O)/C(C#N)=C/c1cccc(Cl)n1)c1ccccc1 [Compound 41, (S,E)-2-Cyano-3-(6-chloropyridin-2-yl)-N-(1-phenylbutyl)acrylamide] | 2 | Less sensitive |  |
|  | CCN1C(=O)C=CC1=O [NEM, N-ethylmaleimide, reference compound] |  |  | Ub-AMC hydrolyzing activity of lysates from treated cells (cellular DUB activity; CML cells, WP1130 1-8 hours): completely blocked substrate hydrolysis; suppression of cellular DUB activity (ubiquitin-AMC) (cellular DUB activity; Z138 cells, within 1 hr): 80% |
| No inhibition | CCCC(NC(=O)/C(C#N)=C/c1cccc(F)n1)c1ccc(OCCN2CCCC2)cc1 (stereo not drawn) [Compound 36, (E)-2-Cyano-3-(6-fluoropyridin-2-yl)-N-(1-(4-(2-(pyrrolidin-1-yl)ethoxy)phenyl)butyl)acrylamide] | 2 | Less sensitive |  |
| Less sensitive | CCC[C@H](NC(=O)/C(C#N)=C/c1cccc(F)n1)c1ccccc1 [Compound 40, (S,E)-2-Cyano-3-(6-fluoropyridin-2-yl)-N-(1-phenylbutyl)acrylamide] | 2 | Less sensitive |  |
| No inhibition | CCCC(NC(=O)/C(C#N)=C/c1cccc(F)n1)c1ccc(OCCN(CC)CC)cc1 (stereo not drawn) [Compound 34, (E)-2-Cyano-N-(1-(4-(2-(diethylamino)ethoxy)phenyl)butyl)-3-(6-fluoropyridin-2-yl)acrylamide] | 2 | Less sensitive |  |
|  | CCCC(NC(=O)/C(C#N)=C/c1cccc(Br)n1)c1ccc(OC)cc1 (stereo not drawn) [Compound 8, (E)-3-(6-bromopyridin-2-yl)-2-cyano-N-(1-(4-methoxyphenyl)butyl)acrylamide] |  |  | Western Targets: USP9X (USP9X): USP9X and DUB activity: no effect; Western Targets: DUB activity (DUB activity): USP9X and DUB activity: no effect |
